“And” between values parts separate entries of the source, which are not always exact repeats. Identical values can stand only once. Like-named read-outs stand apart in the source and are kept apart here.
Tests used:
[1] = Sirolimus concentrations in whole blood samples after balloon inflation; assay type: in vivo, rabbit; settings: for Est. Total Sirolimus in Blood: based on 56 mL per kg
Description: (§1) • 4 balloons—Balloons inflated in pre-dilated arteries (right iliac) for 60 seconds • 4 balloons—Balloons inflated in non-dilated arteries (left iliac) for 60 seconds B. Tracking Studies: 4 balloons (1 rabbit) • 4 balloons—Balloons inserted and not inflated in aorta for 2 min, then removed C. Sirolimus Quantification • Sirolimus content from: 8 balloons inflated in rabbit iliac arteries 4 balloons not inflated in rabbit aorta 8 rabbit iliac arteries (after balloon inflation) 8 whole blood samples (2 samples/rabbit) • Liver, kidney, spleen, heart, lung: stored (−80° C.) for later drug analysis Sirolimus Concentrations in Rabbit Iliac Arteries
• Baseline samples taken before balloon inflation • After 2nd balloon inflation, blood samples were taken 5-15 min later • 5-15 min samples are the cumulative Sirolimus concentration from the inflation of 2 drug coated balloons per animal Total Sirolimus in blood based on 56 mL per kg Sirolimus Concentrations on Drug Coated Balloons (Rabbits)

[2] = Sirolimus content of rabbit iliac arteries after inflation of sirolimus coated balloons; assay type: in vivo
Description: GHOST Rapid Exchange (Rx) Catheter was used in this example. Ghost 3.0×18 mm Rx catheter balloons were coated and used in animal study
A. Expansion in rabbit iliac arteries: 8 balloons (4 rabbits)
as §1
• Drug coated balloons in right iliac arteries inflated/deflated—10-20 min before sacrifice • Drug coated balloons in left iliac arteries inflated/deflated—5-15 min before sacrifice Transfer Efficiency of Sirolimus to Rabbit Iliac Arteries
• Balloons inflated for 1 min in respective iliac arteries • % Sirolimus transferred to artery based on balloon batch average from UV-Vis data • Estimated time artery exposed to blood flow is time after balloon inflation

[3] = Combined Right + Left Iliac Arteries, n = 8

Est. Total Sirolimus in Blood ([1]; average of 4 rabbits (5-15 min)): 5.4 ± 2.3 µg and 5.4 µg
Est. Total Sirolimus in Blood ([1]; rabbit #1, 15 min): 2.7 µg
Est. Total Sirolimus in Blood ([1]; rabbit #2, 5 min): 8.2 µg
Est. Total Sirolimus in Blood ([1]; rabbit #3, 5 min): 5.9 µg
Est. Total Sirolimus in Blood ([1]; rabbit #4, 10 min): 4.8 µg
concentration at 15 min ([1]; rabbit, whole blood, rabbit #1, 15 min after 2nd balloon inflation, cumulative of 2 coated balloons, read-out: Extraction Conc.): 11.4 ng/mL
concentration at 5 min ([1]; rabbit, whole blood, rabbit #2, 5 min after 2nd balloon inflation, cumulative of 2 coated balloons, read-out: Extraction Conc.): 30.8 ng/mL
concentration at 5 min ([1]; rabbit, whole blood, rabbit #3, 5 min after 2nd balloon inflation, cumulative of 2 coated balloons, read-out: Extraction Conc.): 22.2 ng/mL
concentration at 10 min ([1]; rabbit, whole blood, rabbit #4, 10 min after 2nd balloon inflation, cumulative of 2 coated balloons, read-out: Extraction Conc.): 19.3 ng/mL
Extraction Conc. ([1]; whole blood, average of 4 rabbits (5-15 min)): 20.9 ng/mL
Average Sirolimus [2, 3]: 197.2 ± 85.3 ng/mg and 197.2 ng/mg
Total Sirolimus per Artery Average [2, 3]: 4.7 µg
Total Sirolimus per Artery Average ([2]; Right Iliac (denuded), n = 4): 5.4 µg
Average Sirolimus ([2]; Right Iliac (denuded), n = 4, coated balloon inflated 60 s, 10-20 min before sacrifice): 178.3 ng/mg
Total Sirolimus per Artery ([2]; average of the 8 balloons/arteries): 4.7 µg
% Sirolimus Transferred to Artery ([2]; average of the 8 balloons/arteries, based on balloon batch average from UV-Vis data): 7.8±2.8% and 7.8%
Compound: CO[C@H]1C[C@@H]2CC[C@@H](C)[C@@](O)(O2)C(=O)C(=O)N2CCCC[C@H]2C(=O)O[C@H]([C@H](C)C[C@@H]2CC[C@@H](O)[C@H](OC)C2)CC(=O)[C@H](C)/C=C(\C)[C@@H](O)[C@@H](OC)C(=O)[C@H](C)C[C@H](C)/C=C/C=C/C=C/1C [Sirolimus, rapamycin]
Total Sirolimus per Artery Average ([2]; Left Iliac (uninjured), n = 4): 3.9 µg
Average Sirolimus ([2]; Left Iliac (uninjured), n = 4, coated balloon inflated 60 s, 5-15 min before sacrifice): 216.1 ng/mg
